System: 889142-216-R-J1-PDC complex spheroid viability
Assay: Anticancer human tumor 889142-216-R-J1-PDC patient-derived bladder carcinoma cell line growth inhibition [POLQ]
Conditions: for IC50: curve of first compound; for viability, T/C: stronger effect = lower value
Procedure: Multicellular complex tumor spheroid response to Polymerase (POL) inhibitors (novobiocin, ART-558, RP6685) in combination with a variety of drugs and investigational agents in selected tumor cell lines
The POL inhibitors (novobiocin, ART-558, and RP6685) were evaluated both individually and in combination with standard of care and investigational anticancer small molecules within a complex spheroid model of solid tumors. . Complex spheroids include a stromal component modeled by human endothelial cells (HUVEC) and fibroblasts modeled by human mesenchymal stem cells (MSCs). The concentration ranges selected for each drug and investigational agent were based upon clinically achievable concentrations if the clinical Cmax of the agent was known.
Compounds. The drugs and investigational agents: novobiocin (NSC847541), ART-558 (NSC835418), RP-6685 (NSC848927), peposertib (NSC802822), ceralasertib (NSC780249), elimusertib (NSC800525), camonsertib (NSC841442), AZD-1390 (NSC803789), olaparib (NSC753686), talazoparib (NSC767125), rucaparib (NSC756644), sotorasib (NSC818433), MRTX-1133 (NSC836407), SN-38 (NSC673596), topotecan (NSC609699), epotoside (NSC141540), doxorubicin (NSC123127), gemcitabine (NSC613327), 5-fluorouracil (NSC19893), paclitaxel (NSC125973), vemurafenib (NSC761431), MSA-2 (NSC828583), SN-011 (NSC837082), adavosertib (NSC754352), prexasertib (NSC758257), carboplatin (NSC241240) and oxaliplatin (NSC266046), were obtained from the National Cancer Institute (NCI) Developmental Therapeutics Program Chemical Repository (21). The FDA-approved anticancer drug set is available from the Developmental Therapeutics Program at https://dtp.cancer.gov/organization/dscb/obtaining/. […] The stock solutions were prepared in dimethyl sulfoxide (DMSO, Sigma-Aldrich, St. Louis, MO, cat. D2650), except for the platinum compounds which were prepared in saline (Quality Biological, Gaithersburg, MD, cat. 114-055-101), at 800-fold the tested concentration and stored at -70 degrees C prior to their use. All drugs and investigational agents were tested over a range starting from a high concentration at or near the clinical Cmax and decreasing in half-log increments. If the clinical Cmax for an agent had not been determined, the highest concentration tested was 10 microM, except for SN-38, which was tested at a high concentration of 1 microM.
Cell Culture. All cells were maintained in an incubator at 37 degrees C and 5% CO2 with 95% humidity. The PDC lines were cultured according to standard operating procedures established by the NCI PDMR (https://pdmr.cancer.gov). Table 3 of the manuscript, lists the cell lines along with the number of the three cell types plated to form the mct-spheroids and media for tumor cell growth. After thawing, all PDC lines, except 997537-175-T-J1-PDC and 415267-285-R-J2-PDC, were cultured in Matrigel-coated flasks prepared with a working solution of 1X Ham's F-12 nutrient mix, without supplementation (Thermo Fisher Scientific, cat. 11765054), 100 U/mL penicillin-streptomycin (Thermo Fisher Scientific, cat. 15140122), and 2.5% Matrigel (Corning Inc., Corning, NY, cat. 354248) for the first three passages. The two PDC lines 997537-175-T-J1-PDC and 415267-285-R-J2-PDC were cultured on uncoated flasks. The 857933-349-R-J2-PDC line was cultured in 6C/Colon 1B media containing advanced DMEM/F-12 (Thermo Fisher Scientific, cat. 12634028), 10 mM HEPES (Thermo Fisher Scientific, cat. 15630080), 1X GlutaMAX supplement (Thermo Fisher Scientific, cat. 35050061), 0.1 mg/mL primocin (InvivoGen, San Diego, CA, cat. ant-pm-2), 10% defined fetal bovine serum, heat inactivated (HyClone Laboratories Inc., Logan, UT, cat. SH30070.03HI), 50% L-WRN conditioned media (ATCC, cat. CRL-3276), 1.25 mM N-Acetyl-L-cysteine (Sigma-Aldrich, cat. A9165), 10 mM nicotinamide (Sigma-Aldrich, cat. N0636), 1X B-27 supplement (Thermo Fisher Scientific, cat. 17504044), 1X N-2 supplement (Thermo Fisher Scientific, cat. […]

[1] = second compound 0.0316 µM, first compound 0.0316 µM
[2] = second compound 0.0316 µM, first compound 0.1 µM
[3] = second compound 0.1 µM, first compound 0.0316 µM
[4] = second compound 0.1 µM, first compound 0.1 µM
[5] = second compound 0.316 µM, first compound 0.0316 µM
[6] = second compound 0.316 µM, first compound 0.1 µM
[7] = second compound 1 µM, first compound 0.0316 µM
[8] = second compound 1 µM, first compound 0.1 µM
[9] = second compound 3.16 µM, first compound 0.0316 µM
[10] = second compound 3.16 µM, first compound 0.1 µM
[11] = second compound 10 µM, first compound 0.0316 µM
[12] = second compound 10 µM, first compound 0.1 µM
[13] = second compound 0.0316 µM, first compound 0.316 µM
[14] = second compound 0.0316 µM, first compound 1 µM
[15] = second compound 0.0316 µM, first compound 3.16 µM
[16] = second compound 0.0316 µM, first compound 10 µM
[17] = second compound 0.1 µM, first compound 0.316 µM
[18] = second compound 0.1 µM, first compound 1 µM
[19] = second compound 0.1 µM, first compound 3.16 µM
[20] = second compound 0.1 µM, first compound 10 µM
[21] = second compound 0.316 µM, first compound 0.316 µM
[22] = second compound 0.316 µM, first compound 1 µM
[23] = second compound 0.316 µM, first compound 3.16 µM
[24] = second compound 0.316 µM, first compound 10 µM
[25] = second compound 1 µM, first compound 0.316 µM
[26] = second compound 1 µM, first compound 1 µM
[27] = second compound 1 µM, first compound 3.16 µM
[28] = second compound 1 µM, first compound 10 µM
[29] = second compound 3.16 µM, first compound 0.316 µM
[30] = second compound 3.16 µM, first compound 1 µM
[31] = second compound 3.16 µM, first compound 3.16 µM
[32] = second compound 3.16 µM, first compound 10 µM
[33] = second compound 10 µM, first compound 0.316 µM
[34] = second compound 10 µM, first compound 1 µM
[35] = second compound 10 µM, first compound 3.16 µM
[36] = second compound 10 µM, first compound 10 µM
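Also: spheroids exposed to compounds for seven days.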
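For viability, T/C in this document: 100% = DMSO vehicle control viability.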

## CC[C@@]1(O)C(=O)OCc2c1cc1n(c2=O)Cc2cc3c(CN(C)C)c(O)ccc3nc2-1 + Cc1cccc(N(C)C(=O)C2C(O)CCN2c2nc(C)cc(C(F)(F)F)c2C#N)c1
Second compound 0.0316 µM
  IC50: > 100 nM
Second compound 0.1 µM
  IC50: > 100 nM
Second compound 0.316 µM
  IC50: > 100 nM
Second compound 1 µM
  IC50: > 100 nM
Second compound 3.16 µM
  IC50: > 100 nM
Second compound 10 µM
  IC50: 64.7 nM
Second compound 0.0316 µM, first compound 0.000316 µM
  viability, T/C: 103%
Second compound 0.0316 µM, first compound 0.001 µM
  viability, T/C: 103%
Second compound 0.0316 µM, first compound 0.00316 µM
  viability, T/C: 84.2%
Second compound 0.0316 µM, first compound 0.01 µM
  viability, T/C: 76.5%
[1]
  viability, T/C: 71.2%
[2]
  viability, T/C: 56.8%
Second compound 0.1 µM, first compound 0.000316 µM
  viability, T/C: 96%
Second compound 0.1 µM, first compound 0.001 µM
  viability, T/C: 115%
Second compound 0.1 µM, first compound 0.00316 µM
  viability, T/C: 109%
Second compound 0.1 µM, first compound 0.01 µM
  viability, T/C: 83.7%
[3]
  viability, T/C: 73%
[4]
  viability, T/C: 58.9%
Second compound 0.316 µM, first compound 0.000316 µM
  viability, T/C: 97.8%
Second compound 0.316 µM, first compound 0.001 µM
  viability, T/C: 111%
Second compound 0.316 µM, first compound 0.00316 µM
  viability, T/C: 84.4%
Second compound 0.316 µM, first compound 0.01 µM
  viability, T/C: 91.8%
[5]
  viability, T/C: 72.6%
[6]
  viability, T/C: 56.6%
Second compound 1 µM, first compound 0.000316 µM
  viability, T/C: 100%
Second compound 1 µM, first compound 0.001 µM
  viability, T/C: 121%
Second compound 1 µM, first compound 0.00316 µM
  viability, T/C: 93.2%
Second compound 1 µM, first compound 0.01 µM
  viability, T/C: 82.2%
[7]
  viability, T/C: 56.2%
[8]
  viability, T/C: 61.2%
Second compound 3.16 µM, first compound 0.000316 µM
  viability, T/C: 118%
Second compound 3.16 µM, first compound 0.001 µM
  viability, T/C: 103%
Second compound 3.16 µM, first compound 0.00316 µM
  viability, T/C: 87.3%
Second compound 3.16 µM, first compound 0.01 µM
  viability, T/C: 84%
[9]
  viability, T/C: 59.2%
[10]
  viability, T/C: 57.9%
Second compound 10 µM, first compound 0.000316 µM
  viability, T/C: 73.2%
Second compound 10 µM, first compound 0.001 µM
  viability, T/C: 104%
Second compound 10 µM, first compound 0.00316 µM
  viability, T/C: 75%
Second compound 10 µM, first compound 0.01 µM
  viability, T/C: 68.3%
[11]
  viability, T/C: 52.8%
[12]
  viability, T/C: 48%

## C=CC(=O)N1CCN(c2nc(=O)n(-c3c(C)ccnc3C(C)C)c3nc(-c4c(O)cccc4F)c(F)cc23)C(C)C1 (stereo unspecified) + Cc1cccc(N(C)C(=O)C2C(O)CCN2c2nc(C)cc(C(F)(F)F)c2C#N)c1
Second compound 0.0316 µM
  IC50: > 10000 nM
Second compound 0.1 µM
  IC50: > 10000 nM
Second compound 0.316 µM
  IC50: > 10000 nM
Second compound 1 µM
  IC50: > 10000 nM
Second compound 3.16 µM
  IC50: > 10000 nM
Second compound 10 µM
  IC50: > 10000 nM
[1]
  viability, T/C: 108%
[2]
  viability, T/C: 93.5%
[13]
  viability, T/C: 102%
[14]
  viability, T/C: 115%
[15]
  viability, T/C: 122%
[16]
  viability, T/C: 81.4%
[3]
  viability, T/C: 110%
[4]
  viability, T/C: 112%
[17]
  viability, T/C: 100%
[18]
  viability, T/C: 101%
[19]
  viability, T/C: 132%
[20]
  viability, T/C: 96.2%
[5]
  viability, T/C: 97.4%
[6]
  viability, T/C: 119%
[21]
  viability, T/C: 123%
[22]
  viability, T/C: 116%
[23]
  viability, T/C: 129%
[24]
  viability, T/C: 106%
[7]
  viability, T/C: 104%
[8]
  viability, T/C: 107%
[25]
  viability, T/C: 107%
[26]
  viability, T/C: 111%
[27]
  viability, T/C: 124%
[28]
  viability, T/C: 89.3%
[9]
  viability, T/C: 98.5%
[10]
  viability, T/C: 89.3%
[29]
  viability, T/C: 93.8%
[30]
  viability, T/C: 97.2%
[31]
  viability, T/C: 138%
[32]
  viability, T/C: 87.9%
[11]
  viability, T/C: 91.1%
[12]
  viability, T/C: 74.8%
[33]
  viability, T/C: 82.5%
[34]
  viability, T/C: 100%
[35]
  viability, T/C: 106%
[36]
  viability, T/C: 76.7%

## COc1ccc([C@@H](O)c2cc(-c3ncnc4cc(N5CCOCC5)ccc34)c(F)cc2Cl)nn1 + Cc1cccc(N(C)C(=O)C2C(O)CCN2c2nc(C)cc(C(F)(F)F)c2C#N)c1
Second compound 0.0316 µM
  IC50: 3760 nM
Second compound 0.1 µM
  IC50: 2710 nM
Second compound 0.316 µM
  IC50: 2260 nM
Second compound 1 µM
  IC50: 2850 nM
Second compound 3.16 µM
  IC50: 3890 nM
Second compound 10 µM
  IC50: 1850 nM
[1]
  viability, T/C: 123%
[2]
  viability, T/C: 81.2%
[13]
  viability, T/C: 102%
[14]
  viability, T/C: 69.6%
[15]
  viability, T/C: 47.6%
[16]
  viability, T/C: 36.8%
[3]
  viability, T/C: 99.5%
[4]
  viability, T/C: 98.8%
[17]
  viability, T/C: 97.7%
[18]
  viability, T/C: 67.1%
[19]
  viability, T/C: 51.1%
[20]
  viability, T/C: 40.9%
[5]
  viability, T/C: 106%
[6]
  viability, T/C: 103%
[21]
  viability, T/C: 90.3%
[22]
  viability, T/C: 59.6%
[23]
  viability, T/C: 49.7%
[24]
  viability, T/C: 35.5%
[7]
  viability, T/C: 103%
[8]
  viability, T/C: 112%
[25]
  viability, T/C: 90.3%
[26]
  viability, T/C: 66.7%
[27]
  viability, T/C: 52.5%
[28]
  viability, T/C: 35.9%
[9]
  viability, T/C: 94.8%
[10]
  viability, T/C: 79.8%
[29]
  viability, T/C: 64.4%
[30]
  viability, T/C: 70%
[31]
  viability, T/C: 58.6%
[32]
  viability, T/C: 35.2%
[11]
  viability, T/C: 91.2%
[12]
  viability, T/C: 80.5%
[33]
  viability, T/C: 63.6%
[34]
  viability, T/C: 53.6%
[35]
  viability, T/C: 53.6%
[36]
  viability, T/C: 28.9%

From PubChem BioAssay AID1963831 (Molecular Pharmacology Branch, DTP, NCI, 2024)
